Reference: patent publication US6696480B2, “Upregulation of type III endothelial cell nitric oxide synthase by agents that disrupt actin cytoskeletal organization” (Brigham and Women's Hospital, Inc., priority 1998, dated 2004)
“And” between values parts separate entries of the source, which are not always exact repeats. Equal entries are not always repeated. Where two headings read alike, the source gives them in different places.

Experiments:
[1] = system: ecNOS mRNA; experiment: Northern blotting of ecNOS steady-state mRNA in endothelial cells; type: cell-based, human; set-up: ecNOS mRNA levels increased to / ecNOS mRNA levels, % of basal levels / effect on basal ecNOS mRNA levels: unit of the concentration uncertain; conditions: for increase in ecNOS mRNA levels compared to ox-LDL: co-treatment with ox-LDL, simvastatin 0.1 mmol/L; for ecNOS mRNA levels, % of basal levels: hypoxia + simvastatin (1 (unit uncertain))
Protocol: Equal amounts of total RNA (10-20 mg) were separated by 1.2% formaldehyde-agarose gel electrophoresis and transferred overnight onto Hybond nylon membranes. […] All Northern blots were subjected to stringent washing conditions (0.2× SSC/0.1% SDS at 65° C.) prior to autoradiography. RNA loading was determined by rehybridization with human GAPDH probe.

[2] = system: ecNOS; experiment: ecNOS activity, LNMA-inhibitable nitrite production (modified nitrite assay); type: cell-based, human
[3] = system: ecNOS mRNA; experiment: ecNOS mRNA half-life in the presence of actinomycin D; type: cell-based, human; conditions: for half-life of ecNOS mRNA (t1/2) / ecNOS mRNA half-life: actinomycin D; for ecNOS mRNA half-life: simvastatin 1 mM
[4] = system: ecNOS; experiment: ecNOS activity from tissues, arginine to citrulline conversion in mouse aortae; type: in vivo, SV-129 mice; conditions: 2 mg/kg, 14 days
Protocol: The ecNOS activities in mice aortae and brains were measured by the conversion of [^3H]arginine to [^3H]citrulline in the presence and absence of LNMA (5 mM) as described earlier.

[5] = system: ecNOS mRNA; experiment: Quantitative RT-PCR of ecNOS mRNA in mouse aortae and brains; type: in vivo, SV-129 mice; conditions: dose-dependent, 14 days
From the text: Total RNA from mouse aortae and brains was isolated by the guanidinium isothiocyanate method and reverse transcribed using oligo-dT (mRNA Preamplification reagents; Gibco BRL) and Taq ploymerase (Perkin-Elmer). One tenth of the sDNA was used as template for the PCR reaction. […] [NT] ID NO. 1) and 3'Primer: […] For amplification of glyceraldehyde 3-phosphate dehydrogenase (GAPDH), 0.1 nmol of the following primers amplifying a 452-bp fragment were used: 5'Primer: [NT] ID NO. 3) and 3' Primer: […] NO. 4). Denaturing was performed at 94° C. for 30 s, annealing at 60° C. for 30 s, and elongation at 72° C. for 60 s.

[6] = system: cerebral ischemia, left middle cerebral artery (MCA) occlusion; experiment: Murine model of cerebral vascular ischemia (MCA occlusion); type: in vivo, SV-129 mice
From the text: Ischemia was produced by occluding the left middle cerebral artery (MCA) with a coated 8.0 nylon monofilament under anesthesia as described (Huang, Z et al., J Cereb Blood Flow Metab, 1996, 16:981-987, Huang, Z et al., Science, 1994, 265:1883-1885, Hara, H et al., J Cereb Blood Flow Metab, 1997, 1:515-526). Arterial blood pressure, heart rate, arterial oxygen pressure, and partial pressure of carbon dioxide were monitored as described (Huang, Z et al., J Cereb Blood Flow Metab, 1996, 16:981-987, Huang, Z et al., Science, 1994, 265:1883-1885, Hara, H et al., J Cereb Blood Flow Metab, 1997, 1:515-526). The filaments were withdrawn after 2 hours and after 24 h, mice were either sacrificed or tested for neurological deficits using a well-established, standardized, observer-blinded protocol as described (Huang, Z et al., J Cereb Blood Flow Metab, 1996, 16:981-987, Huang, Z et al., Science, 1994, 265:1883-1885, Hara, H et al., J Cereb Blood Flow Metab, 1997, 1:515-526). The motor deficit score range from 0 (no deficit) to 2 (complete deficit).
Brains were divided into five coronal 2-mm sections using a mouse brain matrix (RBM-200C, Activated Systems, Ann Arbor, Mich., USA). Infarction volume was quantitated with an image analysis system (M4, St. Catharines, Ontario, Canada) on 2% 2,3,5-triphenyltetrazolium chloride stained 2-mm slices. The levels of serum cholesterol, creatinine and transaminases were determined by the Tufts University Veterinary Diagnostic Laboratory (Grafton, Mass.).

[7] = system: ecNOS protein; conditions: for increase in ecNOS protein levels compared to ox-LDL alone: co-treatment with ox-LDL, simvastatin 0.1 mmol/L; for ecNOS protein levels, % of basal levels: hypoxia (3% O2)
[8] = system: ecNOS gene transcription; experiment: Nuclear run-on assay of ecNOS gene transcription
[9] = system: human endothelial cells; experiment: Cellular viability (cell count, morphology, Trypan blue exclusion); conditions: simvastatin 0.01 to 0.1 mmol/L, lovastatin 10 mmol/L, up to 96 h
[10] = ox-LDL + simvastatin 0.1 mmol/L
[11] = simvastatin 1 mM alone (20% O2)
[12] = wild-type mice, 2 mg/kg, 14 days

CCC(C)(C)C(=O)O[C@H]1C[C@@H](C)C=C2C=C[C@H](C)[C@H](CC[C@@H]3C[C@@H](O)CC(=O)O3)[C@H]21 [simvastatin]
increase in ecNOS mRNA levels compared to ox-LDL ([1]; 48 h): 6.3 fold | increase in ecNOS mRNA levels compared to ox-LDL ([1]; 72 h): 14.5 fold | ecNOS mRNA levels, % of basal levels ([1]; 24 h): 195±12% | ecNOS mRNA levels, % of basal levels ([1]; 48 h): 530±30% | ecNOS mRNA levels increased to ([1]; simvastatin (1 (unit uncertain)) alone, normoxia): 340±24% | decrease in ecNOS activity compared to untreated cells [2, 10]: 28±3% | ecNOS-dependent nitrite production [2, 10]: 6.4±0.3 nmol/500,000 cells/24 h | ecNOS-dependent nitrite production ([2]; ox-LDL + simvastatin 1 mmol/L): 12.8±2.7 nmol/500,000 cells/24 h | increase in ecNOS activity compared to baseline ([2]; ox-LDL + simvastatin 1 mmol/L): 45±6% | nitrite production [2, 11]: 30±6.5 nmol/500,000 cells/24 h | upregulation of nitrite production [2, 11]: 5 fold | increase in ecNOS activity over basal activity ([2]; simvastatin 1 mM, 3% O2, 24 h): 3 fold | nitrite production ([2]; simvastatin 1 mM, 3% O2, 24 h): 18±5.0 nmol/500,000 cells/24 h | prolongation of ecNOS mRNA half-life ([3]; ox-LDL + simvastatin 0.1 mmol/L, versus ox-LDL): 1.6 fold | half-life of ecNOS mRNA (t1/2) [3, 10]: 22 ± 3 h | ecNOS mRNA half-life ([3]; hypoxic): 38 ± 4 h | ecNOS mRNA half-life ([3]; normoxic): 46 ± 4 h | prolongation of ecNOS mRNA half-life over baseline ([3]; simvastatin alone): 1.3 fold | half-life of ecNOS mRNA (t1/2) ([3]; simvastatin alone): 43 ± 4 h | ecNOS activity in aortae [4]: 0.39±0.09 U/mg protein | increase of ecNOS message compared to that of GAPDH in aortae [5]: 3 fold | increase in cerebral blood flow over basal values ([6]; 2 mg/kg): 23% | improvement of neurological motor deficit score compared to controls ([6]; 2 mg/kg, 14 days): ~2 fold | neurological motor deficit score ([6]; 2 mg/kg, 14 days, 2 h MCA occlusion, 22 hours of reperfusion, score 0 to 2): 0.8±0.2 | increase in cerebral blood flow over basal values ([6]; 20 mg/kg): 35% | persistence of the effect on cerebral infarct size ([6]; mouse, in vivo): up to 3 days | cerebral infarct size [6, 12]: 73.8±8.5 mm3 | smaller cerebral infarct sizes compared to untreated animals [6, 12]: 25% | increase in ecNOS protein levels compared to ox-LDL alone ([7]; 24 h): 1.3 fold | increase in ecNOS protein levels compared to ox-LDL alone ([7]; 72 h): 3.3 fold | increase in ecNOS protein levels compared to ox-LDL alone ([7]; 96 h): 8.9 fold | ecNOS protein levels, % of basal levels ([7]; 48 h, simvastatin 1 mM): 159±13% | ecNOS protein levels, % of basal levels ([7]; 48 h, simvastatin 10 mM): 223±21% | effect on ecNOS expression ([7]; not chemically-activated statin (10)): no effect | decrease in ecNOS protein ([7]; ox-LDL + simvastatin 0.01 mmol/L, 48 h): 57%±8% | decrease in ecNOS protein level ([7]; ox-LDL + simvastatin 0.1 mmol/L, 24 h): 15% (2% | decrease in ecNOS protein ([7]; ox-LDL + simvastatin 0.1 mmol/L, 48 h): 4%±7% | ecNOS protein levels increased above basal expression ([7]; ox-LDL + simvastatin 0.1 mmol/L, 72 h): 110% (6% | ecNOS protein levels increased above basal expression ([7]; ox-LDL + simvastatin 0.1 mmol/L, 96 h): 124% (6% | ecNOS protein levels above baseline ([7]; ox-LDL + simvastatin 1 mmol/L, 48 h): 146%±9% and 150% (8% | upregulation of ecNOS expression ([7]; simvastatin alone (1)): 2.9 fold | decrease in ecNOS gene transcription ([8]; hypoxia + simvastatin 1 mM): 83±6% | increase in ecNOS gene transcription ([8]; simvastatin alone, normoxic condition): 20±5% | noticeable adverse effects on human endothelial cell [9]: Neither simvastatin (0.01 to 0.1 mmol/L) nor lovastatin (10 mmol/L) produced any noticeable adverse effects
